# Values of other authors in patent US20160354326A1, “LOCAL ANESTHETIC SOLUTION FOR DENTAL AND/OR CONTRAST MEDIA USE” (priority 2014, published 2016).
# Conditions: dissolved in solution; sucrose standard = 1
row,SMILES,sweetness perception rating (times the sweetness of sucrose in solution)
1,OC[C@@H](O)[C@@H](O)[C@H](O)[C@@H](O)CO [Sorbitol],0.6
2,OC[C@H]1O[C@@](CO)(O[C@H]2O[C@H](CO)[C@@H](O)[C@H](O)[C@H]2O)[C@@H](O)[C@@H]1O [Sucrose],1
3,O=C(CO)[C@@H](O)[C@H](O)[C@H](O)CO [fructose],1.7
